Legend:
[1] = target: T1, Aldehyde dehydrogenase family 1 member A3 (ALDH1A3) (Homo sapiens, UniProt P47895); assay: TMT LC-MSMS of 11-labelled proteins; type: cell-based
T1 sequence (P47895 1-512): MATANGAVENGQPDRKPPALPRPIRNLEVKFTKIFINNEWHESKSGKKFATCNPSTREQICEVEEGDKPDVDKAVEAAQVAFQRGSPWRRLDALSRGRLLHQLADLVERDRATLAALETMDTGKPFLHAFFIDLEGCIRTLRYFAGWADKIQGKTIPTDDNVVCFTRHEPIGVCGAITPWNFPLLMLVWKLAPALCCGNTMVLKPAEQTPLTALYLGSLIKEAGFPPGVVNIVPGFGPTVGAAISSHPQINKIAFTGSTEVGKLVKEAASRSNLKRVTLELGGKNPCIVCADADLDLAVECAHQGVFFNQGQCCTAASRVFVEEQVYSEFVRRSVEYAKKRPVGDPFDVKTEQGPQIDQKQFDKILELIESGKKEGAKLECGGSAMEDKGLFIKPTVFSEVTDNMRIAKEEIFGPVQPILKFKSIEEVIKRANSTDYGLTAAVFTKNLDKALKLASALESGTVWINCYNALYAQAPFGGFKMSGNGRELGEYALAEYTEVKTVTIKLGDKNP
Text: (§1) The labelled proteins were enriched by immunoprecipitation with an anti-fluorescein antibody and tryptically digested in gel. Digested peptides were modified with Light- (L-), Medium- (M-), or Heavy- (H-) TMT reagent for samples treated with 11, 11 with PU-H71 (as competitive condition), or DMSO (vehicle), respectively, and mixed in a 1:1:1 ratio for LC-MSMS analysis. We performed three experimental replicates, in which proteins detected and quantified at least twice were selected as identified proteins. According to the related approach of Cravatt et al[44], the proteins having L/H (11/DMSO) ratios >5 were defined as 11-labelled proteins. […] On the basis of these criteria, we identified 6 proteins that react with 11, including three ligand-specific targets (Hsp90α (HSP90AA1), Hsp90β (HSP90AB1), and Grp94 (HSP90B1)) and three off-targets (Trifunctional enzyme subunit α (HADHA), Tubulin-α (TUBA1B), and ADP/ATP translocase 3 (SLC25A6)) (Fig. 5d, e and Supplementary Data 1). […] Grp94, a HSP90 isomer, was previously reported to be a PU-H71 specific target. TRAP-1, another Hsp90 isomer that can bind PU-H71, on the other hand, was not identified as 11-target by our criteria.
(§2) SKBR3 human breast cancer cells (2.0 × 10^6 cells) were seeded on a 10 cm dish and cultured for 3 days in McCoy’s 5A in a 5% CO2 humidified chamber at 37 °C. […] As competitive experiments, the labelling was conducted in the presence of PU-H71 (10 µM). After labelling, the cells were washed twice with PBS, and lysed with RIPA buffer. […] The supernatant was mixed with chilled acetone and incubated overnight at −80 °C. The protein precipitates were solubilized by sonication in 1 mL of RIPA buffer containing 1% SDS, and then 10-fold diluted with RIPA buffer to reduce SDS concentration to c.a. 0.1%. The protein solution (containing 1 mg of protein) was mixed with Protein G Sepharose 4 Fast Flow (GE Healthcare) and rotated at 4 °C for 1 h. After removal of the beads, the remaining supernatant was mixed with anti-fluorescein antibody (Abcam, ab19491, 7:10000) and rotated at 4 °C for 1 h, followed by addition of fresh Protein G Sepharose 4 Fast Flow and further incubation at 4 °C for 4 h. The beads were washed five times with RIPA buffer and once with PBS. Proteins were eluted from the beads by addition of 2 × sample buffer containing 100 mM DTT and boiling at 95 °C for 5 min. The samples were subjected to a 7.5% SDS–PAGE gel (Mini-PROTEAN TGX Gels, BioRad), and electrophoresed as the migration distance of dye front is about 10 mm. Each lane was excised (height, 10 mm), and treated with a 47.5% methanol / 47.5% pure water / 5% acetic acid for 20 min, a 50% methanol / 50% pure water for 10 min, and in pure water for 10 min. The gel pieces were dehydrated with 100% acetonitrile, and then swelled with 200 μL of 100 mM TEAB (triethylamine bicarbonate) buffer containing 10 mM DTT and heated at 56 °C for 30 min. The solutions were replaced with 200 µL of 100 mM TEAB buffer containing 55 mM iodoacetamide and incubated for 45 min in the dark. The gel pieces were washed with 100 mM TEAB buffer and dehydrated in acetonitrile. This step was repeated once. The gels were reswelled in 100 mM TEAB buffer containing 10 ng/μL Sequencing Grade Trypsin (Promega) and incubated overnight at 37 °C. To the gels, 50 μL of an extraction solution (50% acetonitrile, 0.1% TFA) was added. After 10 min incubation, the supernatants were collected to new tubes, and this process was repeated twice. Extracted peptides were dried in vacuo and reconstituted with 25 μL of 100 mM TEAB buffer.

Serum albumin (ALB) = Serum albumin (ALB) (Homo sapiens, UniProt P02768); assay: TMT LC-MSMS of 11-labelled proteins; type: cell-based
Chain of Serum albumin (ALB) (P02768 25-609): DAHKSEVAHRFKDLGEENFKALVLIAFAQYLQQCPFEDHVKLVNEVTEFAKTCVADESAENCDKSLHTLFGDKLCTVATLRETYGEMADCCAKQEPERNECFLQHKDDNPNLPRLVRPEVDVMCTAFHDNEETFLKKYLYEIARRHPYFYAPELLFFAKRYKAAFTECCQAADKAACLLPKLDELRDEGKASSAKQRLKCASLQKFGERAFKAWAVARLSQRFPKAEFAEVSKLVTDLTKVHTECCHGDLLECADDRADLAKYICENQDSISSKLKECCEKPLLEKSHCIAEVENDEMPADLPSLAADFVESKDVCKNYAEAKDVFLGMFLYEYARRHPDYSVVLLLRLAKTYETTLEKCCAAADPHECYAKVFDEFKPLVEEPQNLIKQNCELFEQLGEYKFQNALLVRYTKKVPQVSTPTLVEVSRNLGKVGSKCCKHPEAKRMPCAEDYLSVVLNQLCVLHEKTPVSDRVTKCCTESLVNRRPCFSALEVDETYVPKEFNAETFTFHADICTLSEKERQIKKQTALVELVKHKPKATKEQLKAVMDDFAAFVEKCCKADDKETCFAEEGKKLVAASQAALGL
Text: as §1, §2

[2] = sheet Exp1, SKBR3 cells, 11 0.5 µM 3 h vs DMSO
[3] = sheet Exp1, SKBR3 cells, 11 0.5 µM 3 h vs with PU-H71 10 µM
[4] = sheet Merged, SKBR3 cells, 11 0.5 µM 3 h vs DMSO
[5] = sheet Merged, SKBR3 cells, 11 0.5 µM 3 h vs with PU-H71 10 µM

Abundance Ratio: (11) / (11 with PU-H71) ([1]; Exp3, ALDH1A3): 0.892
Abundance Ratio: (11) / (DMSO) ([1]; Exp3, ALDH1A3): 4.34
Abundances (Grouped): 11 ([1]; Exp3, ALDH1A3): 42.1
Abundances (Grouped): 11 with PU-H71 ([1]; Exp3, ALDH1A3, with PU-H71): 47.2
Abundance Ratio: (11) / (DMSO) [1, 2]: 5.076
Abundance Ratio: (11) / (11 with PU-H71) [1, 3]: 0.894
Abundance Ratio: (11) / (DMSO) [1, 4]: 4.694
Abundance Ratio: (11) / (11 with PU-H71) [1, 5]: 0.893
Abundance Ratio: (11) / (11 with PU-H71) (Serum albumin (ALB); Exp3, ALB): 0.706
Abundance Ratio: (11) / (DMSO) (Serum albumin (ALB); Exp3, ALB): 1.152
Abundances (Grouped): 11 (Serum albumin (ALB); Exp3, ALB): 132.6
Abundances (Grouped): 11 with PU-H71 (Serum albumin (ALB); Exp3, ALB): 187.7
Abundance Ratio: (11) / (DMSO) (Serum albumin (ALB); [2]): 0.969
Abundance Ratio: (11) / (11 with PU-H71) (Serum albumin (ALB); [3]): 0.846
Abundance Ratio: (11) / (11 with PU-H71) (Serum albumin (ALB); sheet Exp2, ALB): 0.796
Abundance Ratio: (11) / (DMSO) (Serum albumin (ALB); sheet Exp2, ALB): 0.967
Abundances (Grouped): 11 (Serum albumin (ALB); sheet Exp2, ALB): 219.9
Abundances (Grouped): 11 with PU-H71 (Serum albumin (ALB); sheet Exp2, ALB): 276.3
Abundance Ratio: (11) / (DMSO) (Serum albumin (ALB); [4]): 0.969
Abundance Ratio: (11) / (11 with PU-H71) (Serum albumin (ALB); [5]): 0.846
SMILES: CC(=O)Oc1ccc2c(c1)Oc1cc(OC(C)=O)ccc1C21OC(=O)c2cc(C(=O)NCCOCCOCCNC(=O)CCCC(=O)N(CC#N)S(=O)(=O)c3ccc(C(=O)NCCCn4c(Sc5cc6c(cc5I)OCO6)nc5c(N)ncnc54)cc3)ccc21 [compound 11]

From paper PMC5951806, “Rapid labelling and covalent inhibition of intracellular native proteins using ligand-directed N-acyl-N-alkyl sulfonamide” (Nature Communications, 2018)
